From patent US4698327A, “Novel glycopeptide derivatives” (priority 1986, dated 1987) come the findings set out here.

Converted amounts (≈) assume the structure as drawn.

Assay [1] has as its system Staphylococcus aureus V41. In words: MIC, standard agar-dilution assay. The format is cell-based.
Assay [2] relates to Staphylococcus aureus X400. The assay can be described thus: MIC, standard agar-dilution assay. It is filed as cell-based.
Assay [3] deals with Staphylococcus aureus S13E. The format is cell-based. Particulars: agar dilution. Background: In agar dilution, organisms are placed on agar that contains the substance at set levels.
For assay [4], the system named is Staphylococcus epidermidis EPI1. The format is cell-based. The following applies: agar dilution.
Assay [5] concerns Staphylococcus epidermidis 222. In words: MIC, standard agar-dilution assay. The format is cell-based.
Assay [6] concerns Streptococcus pyogenes C203. In words: MIC, standard agar-dilution assay. The format is cell-based.
Assay [7] relates to Streptococcus pneumoniae Park 1. The format is cell-based. Particulars: agar dilution.
For assay [8], the system named is Streptococcus faecium ATCC 9790. In words: MIC, standard agar-dilution assay. It is filed as cell-based.
In assay [9] the test system is Streptococcus sp. group D 2041. The assay can be described thus: MIC, standard agar-dilution assay. The format is cell-based.
Assay [10] has as its system Haemophilus influenzae C.L. The assay can be described thus: MIC, standard agar-dilution assay. It is filed as cell-based.
In assay [11] the test system is Haemophilus influenzae 76. In words: MIC, standard agar-dilution assay. The format is cell-based.
In the next assay the test system is Escherichia coli N10. In words: MIC, standard agar-dilution assay. The format is cell-based.
For another assay, the system named is Escherichia coli EC14. In words: MIC, standard agar-dilution assay. It is filed as cell-based.
The test system of the next assay is Escherichia coli TEM. The assay can be described thus: MIC, standard agar-dilution assay. It is filed as cell-based.
Assay [12] deals with Klebsiella pneumoniae X26. In words: MIC, standard agar-dilution assay. It is filed as cell-based.
Assay [13] deals with Klebsiella pneumoniae X68. The assay can be described thus: MIC, standard agar-dilution assay. The format is cell-based.
For assay [14], the system named is Klebsiella pneumoniae KAE. In words: MIC, standard agar-dilution assay. It is filed as cell-based.
In assay [15] the test system is Staphylococcus aureus NRRL B313. The following applies: agar dilution.
Another assay deals with Staphylococcus aureus. Particulars: Staphylococcus aureus infection in mice; two doses, administered subcutaneously.
The subject of a further assay is Streptococcus pyogenes. The following applies: Streptococcus pyogenes infection in mice; two doses, administered subcutaneously.
Another assay has as its system Streptococcus pneumoniae. Particulars: Streptococcus pneumoniae infection in mice; two doses, administered subcutaneously.

For `CCN(CC)c1ccc(CNC2(C)CC(OC3C(Oc4c5cc6cc4Oc4ccc(cc4Cl)C(O)C4NC(=O)C(NC(=O)C6NC(=O)C(CC(N)=O)NC(=O)C(NC(=O)C(CC(C)C)NC)C(O)c6ccc(c(Cl)c6)O5)c5ccc(O)c(c5)-c5c(O)cc(O)cc5C(C(=O)O)NC4=O)OC(CO)C(O)C3O)OC(C)C2O)cc1` (stereo not drawn) [Example 77, N^van ( -p-diethylaminobenzyl)vancomycin], the MIC in assay [1] was determined as 0.5 µg/mL (≈ 0.31 µM); in assay [2] it was 0.5 µg/mL (≈ 0.31 µM); in assay [3], 0.5 µg/mL (≈ 0.31 µM); in assay [4], 1 µg/mL (≈ 0.621 µM); in assay [5], 0.5 µg/mL (≈ 0.31 µM); in assay [6] it was 0.25 µg/mL (≈ 0.155 µM). In addition, the MIC in assay [7] was 0.125 µg/mL (≈ 0.0776 µM); in [8], 0.5 µg/mL (≈ 0.31 µM); in assay [9] it was 1 µg/mL (≈ 0.621 µM); in assay [10], 128 µg/mL (≈ 79.5 µM); in [11], 128 µg/mL (≈ 79.5 µM); against Escherichia coli N10 it was > 128 µg/mL. Moreover, the MIC in the assay with Escherichia coli EC14 is > 128 µg/mL; in the assay with Escherichia coli TEM, > 128 µg/mL; in [12], > 128 µg/mL; in [13], > 128 µg/mL; in [14] it was > 128 µg/mL; in [15], 0.25 µg/mL (≈ 0.155 µM). Moreover, the ED50 with Staphylococcus aureus turned out to be 1.1 mg/kg/2; in the assay on Streptococcus pyogenes, 0.8 mg/kg/2; in the assay with Streptococcus pneumoniae it was 1.2 mg/kg/2.

Regarding `CNC(CC(C)C)C(=O)NC1C(=O)NC(CC(N)=O)C(=O)NC2C(=O)NC3C(=O)NC(C(=O)NC(C(=O)O)c4cc(O)cc(O)c4-c4cc3ccc4O)C(O)c3ccc(c(Cl)c3)Oc3cc2cc(c3OC2OC(CO)C(O)C(O)C2OC2CC(C)(NCc3ccc(Br)cc3)C(O)C(C)O2)Oc2ccc(cc2Cl)C1O` (stereo not drawn) [Example 80, N^van --( -p-bromobenzyl)vancomycin], the MIC came out at 0.5 µg/mL (≈ 0.309 µM) in assay [1]; 0.25 µg/mL (≈ 0.154 µM) in assay [2]; 0.25 µg/mL (≈ 0.154 µM) in [3]; 1 µg/mL (≈ 0.618 µM) in assay [4]; 0.5 µg/mL (≈ 0.309 µM) in [5]; 0.25 µg/mL (≈ 0.154 µM) in assay [6]. Besides, the MIC is 0.03 µg/mL (≈ 0.0185 µM) in [7]; 0.25 µg/mL (≈ 0.154 µM) in assay [8]; 1 µg/mL (≈ 0.618 µM) in [9]; 64 µg/mL (≈ 39.5 µM) in assay [10]; 64 µg/mL (≈ 39.5 µM) in assay [11]; > 128 µg/mL in the assay with Escherichia coli N10. Further, the MIC was > 128 µg/mL with Escherichia coli EC14; > 128 µg/mL against Escherichia coli TEM; > 128 µg/mL in [12]; > 128 µg/mL in assay [13]; > 128 µg/mL in [14]; 0.25 µg/mL (≈ 0.154 µM) in [15]. Also, the ED50 in the assay with Staphylococcus aureus stood at 1.34 mg/kg/2; with Streptococcus pyogenes, 0.78 mg/kg/2; with Streptococcus pneumoniae, 0.41 mg/kg/2.

For `CCCCc1ccc(CNC2(C)CC(OC3C(Oc4c5cc6cc4Oc4ccc(cc4Cl)C(O)C4NC(=O)C(NC(=O)C6NC(=O)C(CC(N)=O)NC(=O)C(NC(=O)C(CC(C)C)NC)C(O)c6ccc(c(Cl)c6)O5)c5ccc(O)c(c5)-c5c(O)cc(O)cc5C(C(=O)O)NC4=O)OC(CO)C(O)C3O)OC(C)C2O)cc1` (stereo not drawn) [Example 81, N^van --( -p-butylbenzyl)vancomycin], the MIC in [1] worked out at 0.125 µg/mL (≈ 0.0783 µM); in [2], 0.125 µg/mL (≈ 0.0783 µM); in [3], 0.06 µg/mL (≈ 0.0376 µM); in assay [4], 0.25 µg/mL (≈ 0.157 µM); in assay [5], 0.125 µg/mL (≈ 0.0783 µM); in assay [6], 0.06 µg/mL (≈ 0.0376 µM). Also, the MIC in [7] was 0.06 µg/mL (≈ 0.0376 µM); in [8], 0.06 µg/mL (≈ 0.0376 µM); in assay [9], 0.25 µg/mL (≈ 0.157 µM); in assay [10], 32 µg/mL (≈ 20.1 µM); in assay [11], 32 µg/mL (≈ 20.1 µM); in the assay on Escherichia coli N10 it was > 128 µg/mL. The MIC in the assay on Escherichia coli EC14 was > 128 µg/mL; in the assay with Escherichia coli TEM it was > 128 µg/mL; in assay [12] it was > 128 µg/mL; in assay [13] it was > 128 µg/mL; in [14], > 128 µg/mL; in assay [15] it was 0.06 µg/mL (≈ 0.0376 µM). For the same compound, the ED50 in the assay on Staphylococcus aureus is recorded as 0.74 mg/kg/2; in the assay on Streptococcus pyogenes, 1.16 mg/kg/2; in the assay on Streptococcus pneumoniae, 1.26 mg/kg/2.

With `CCCCOc1ccc(CNC2(C)CC(OC3C(Oc4c5cc6cc4Oc4ccc(cc4Cl)C(O)C4NC(=O)C(NC(=O)C6NC(=O)C(CC(N)=O)NC(=O)C(NC(=O)C(CC(C)C)NC)C(O)c6ccc(c(Cl)c6)O5)c5ccc(O)c(c5)-c5c(O)cc(O)cc5C(C(=O)O)NC4=O)OC(CO)C(O)C3O)OC(C)C2O)cc1` (stereo not drawn) [Example 84, N^van --( -p-butoxybenzyl)vancomycin], the MIC in assay [1] was determined as 0.125 µg/mL (≈ 0.0776 µM); in assay [2], 0.125 µg/mL (≈ 0.0776 µM); in assay [3], 0.125 µg/mL (≈ 0.0776 µM); in assay [4], 0.25 µg/mL (≈ 0.155 µM); in assay [5], 0.25 µg/mL (≈ 0.155 µM); in assay [6] it was 0.06 µg/mL (≈ 0.0372 µM). In addition, the MIC was 0.03 µg/mL (≈ 0.0186 µM) in [7]; 0.125 µg/mL (≈ 0.0776 µM) in [8]; 0.25 µg/mL (≈ 0.155 µM) in assay [9]; 32 µg/mL (≈ 19.9 µM) in assay [10]; 64 µg/mL (≈ 39.7 µM) in assay [11]; > 128 µg/mL against Escherichia coli N10. The MIC is > 128 µg/mL against Escherichia coli EC14; > 128 µg/mL in the assay on Escherichia coli TEM; > 128 µg/mL in assay [12]; > 128 µg/mL in assay [13]; > 128 µg/mL in assay [14]; 0.125 µg/mL (≈ 0.0776 µM) in [15]. Moreover, the figures for the ED50 with Staphylococcus aureus, in the assay with Streptococcus pyogenes and in the assay on Streptococcus pneumoniae were 0.65 mg/kg/2, 0.69 mg/kg/2 and 1.14 mg/kg/2, respectively.

With `CCCCCCCCc1ccc(CNC2(C)CC(OC3C(Oc4c5cc6cc4Oc4ccc(cc4Cl)C(O)C4NC(=O)C(NC(=O)C6NC(=O)C(CC(N)=O)NC(=O)C(NC(=O)C(CC(C)C)NC)C(O)c6ccc(c(Cl)c6)O5)c5ccc(O)c(c5)-c5c(O)cc(O)cc5C(C(=O)O)NC4=O)OC(CO)C(O)C3O)OC(C)C2O)cc1` (stereo not drawn) [Example 93, N^van --( -p-octylbenzyl)vancomycin], the MIC in [1] was 1 µg/mL (≈ 0.605 µM); in [2], 1 µg/mL (≈ 0.605 µM); in assay [3] it was 0.5 µg/mL (≈ 0.303 µM); in assay [4] it was 2 µg/mL (≈ 1.21 µM); in [5] it was 1 µg/mL (≈ 0.605 µM); in assay [6] it was 0.25 µg/mL (≈ 0.151 µM). Further, the MIC in [7] was 0.25 µg/mL (≈ 0.151 µM); in assay [8], 0.25 µg/mL (≈ 0.151 µM); in assay [9], 0.5 µg/mL (≈ 0.303 µM); in assay [10] it was > 128 µg/mL; in assay [11] it was > 128 µg/mL; with Escherichia coli N10, > 128 µg/mL. In addition, the MIC is > 128 µg/mL with Escherichia coli EC14; > 128 µg/mL against Escherichia coli TEM; > 128 µg/mL in [12]; > 128 µg/mL in [13]; > 128 µg/mL in [14]; 0.5 µg/mL (≈ 0.303 µM) in assay [15]. For the same compound, the ED50 worked out at 0.19 mg/kg/2 in the assay on Staphylococcus aureus, 0.62 mg/kg/2 in the assay with Streptococcus pyogenes and 0.23 mg/kg/2 in the assay with Streptococcus pneumoniae.

Regarding `CCCCCCCCOc1ccc(CNC2(C)CC(OC3C(Oc4c5cc6cc4Oc4ccc(cc4Cl)C(O)C4NC(=O)C(NC(=O)C6NC(=O)C(CC(N)=O)NC(=O)C(NC(=O)C(CC(C)C)NC)C(O)c6ccc(c(Cl)c6)O5)c5ccc(O)c(c5)-c5c(O)cc(O)cc5C(C(=O)O)NC4=O)OC(CO)C(O)C3O)OC(C)C2O)cc1` (stereo not drawn) [Example 94, N^van --( -p-octyloxybenzyl)vancomycin], the MIC in assay [1] was 0.5 µg/mL (≈ 0.3 µM); in assay [2], 0.5 µg/mL (≈ 0.3 µM); in assay [3], 0.5 µg/mL (≈ 0.3 µM); in [4] it was 1 µg/mL (≈ 0.6 µM); in [5] it was 0.5 µg/mL (≈ 0.3 µM); in assay [6], 0.25 µg/mL (≈ 0.15 µM). The MIC in assay [7] is 0.25 µg/mL (≈ 0.15 µM); in [8], 0.25 µg/mL (≈ 0.15 µM); in assay [9], 0.25 µg/mL (≈ 0.15 µM); in assay [10], > 128 µg/mL; in assay [11] it was > 128 µg/mL; in the assay with Escherichia coli N10 it was > 128 µg/mL. Moreover, the MIC in the assay with Escherichia coli EC14 is > 128 µg/mL; against Escherichia coli TEM, > 128 µg/mL; in assay [12], > 128 µg/mL; in [13] it was > 128 µg/mL; in [14], > 128 µg/mL; in assay [15] it was 0.25 µg/mL (≈ 0.15 µM). Besides, the results for the ED50 in the assay with Staphylococcus aureus, in the assay with Streptococcus pyogenes and in the assay on Streptococcus pneumoniae were > 0.12 mg/kg/2, 0.66 mg/kg/2 and 0.2 mg/kg/2, respectively.
